Test results as given in patent publication US12637428B2, “Isoquinoline derivatives as SIK2 inhibitors” (Cancer Research Technology Limited, priority 2019, dated 2026).

Tests used:
Assay type in all cases: biochemical
EPHA2 = biological target: T1, EPHA2 (Homo sapiens, UniProt P29317); test: EPHA2 kinase assay, IMAP fluorescence polarization; settings: 50 or 100 μM ATP, Tris pH 8.5, average
T1 construct: purchased Life Technologies

SIK1 = biological target: T2, SIK1 (Homo sapiens, UniProt P57059); test: SIK1 kinase assay, IMAP fluorescence polarization; settings: 50 or 100 μM ATP, average
T2 construct: purchased Life Technologies
Summary of the method: (§1)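 Kinases (0.6–13 nM) incubated 60 min at room temperature with 100 nM FAM-Abltide, FAM-Srctide or FAM-HDAC peptide and 50 or 100 μM ATP in 20 mM Tris pH 7.2, 4 mM MgCl2, 0.2% BSA, 2 mM DTT. IMAP binding reagent (85:15 buffer A:B; 30:70 for Src) stopped reactions; fluorescence polarization read; compounds tested 0.00005–1 μM.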

Abl = biological target: T3, Abl (Homo sapiens, UniProt P00519); test: Abl kinase assay, IMAP fluorescence polarization; settings: 50 or 100 μM ATP, average
T3 construct: purchased Life Technologies
Summary of the method: as §1

Src = biological target: T4, Src (Homo sapiens, UniProt P12931); test: Src kinase assay, IMAP fluorescence polarization; settings: 50 or 100 μM ATP, average
T4 construct: purchased Life Technologies
Summary of the method: as §1

SIK3 = biological target: T5, SIK3 (Homo sapiens, UniProt Q9Y2K2); test: SIK3 kinase assay, IMAP fluorescence polarization; settings: 50 or 100 μM ATP, average
T5 construct: purchased Life Technologies
Summary of the method: as §1

SIK2 = biological target: T6, SIK2 (Homo sapiens, UniProt Q9H0K1); test: SIK2 kinase assay, IMAP fluorescence polarization; settings: 50 or 100 μM ATP, average
T6 construct: purchased Life Technologies
Summary of the method: as §1

T5 sequence (Q9Y2K2 whole entry): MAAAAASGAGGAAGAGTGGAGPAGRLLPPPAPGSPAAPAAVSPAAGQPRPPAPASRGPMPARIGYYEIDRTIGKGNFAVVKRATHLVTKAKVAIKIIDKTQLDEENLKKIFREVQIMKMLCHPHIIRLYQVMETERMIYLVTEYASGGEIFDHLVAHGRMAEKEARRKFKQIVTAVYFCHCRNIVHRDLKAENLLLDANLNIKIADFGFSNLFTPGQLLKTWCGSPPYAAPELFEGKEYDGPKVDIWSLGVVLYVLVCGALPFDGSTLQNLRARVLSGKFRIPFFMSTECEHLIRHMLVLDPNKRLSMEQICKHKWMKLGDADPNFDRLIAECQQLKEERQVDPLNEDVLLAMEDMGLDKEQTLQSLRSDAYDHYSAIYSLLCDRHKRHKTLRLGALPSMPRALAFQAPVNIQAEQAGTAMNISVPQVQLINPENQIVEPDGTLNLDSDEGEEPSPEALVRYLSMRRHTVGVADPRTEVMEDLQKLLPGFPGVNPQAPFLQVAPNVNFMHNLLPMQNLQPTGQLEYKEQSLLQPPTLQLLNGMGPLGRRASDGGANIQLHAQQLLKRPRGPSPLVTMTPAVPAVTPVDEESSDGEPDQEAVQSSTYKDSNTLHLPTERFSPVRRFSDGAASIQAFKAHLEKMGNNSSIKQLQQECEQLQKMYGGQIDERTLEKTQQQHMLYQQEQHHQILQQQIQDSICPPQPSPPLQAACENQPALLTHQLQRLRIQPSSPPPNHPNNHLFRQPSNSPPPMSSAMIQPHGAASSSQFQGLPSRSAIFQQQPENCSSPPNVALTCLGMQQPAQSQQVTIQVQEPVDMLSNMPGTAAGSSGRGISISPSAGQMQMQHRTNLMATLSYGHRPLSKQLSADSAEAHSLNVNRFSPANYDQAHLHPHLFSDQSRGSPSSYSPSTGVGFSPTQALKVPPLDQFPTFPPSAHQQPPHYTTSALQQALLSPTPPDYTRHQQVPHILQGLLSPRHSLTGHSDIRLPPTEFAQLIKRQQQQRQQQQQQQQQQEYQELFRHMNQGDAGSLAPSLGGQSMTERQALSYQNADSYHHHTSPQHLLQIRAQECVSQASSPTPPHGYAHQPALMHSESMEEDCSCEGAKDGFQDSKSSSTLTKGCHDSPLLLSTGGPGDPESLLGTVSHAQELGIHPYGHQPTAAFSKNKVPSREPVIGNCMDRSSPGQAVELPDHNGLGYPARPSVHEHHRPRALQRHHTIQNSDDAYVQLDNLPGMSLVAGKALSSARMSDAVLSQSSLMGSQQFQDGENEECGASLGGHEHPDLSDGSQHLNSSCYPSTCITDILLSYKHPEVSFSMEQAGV
T3 sequence (P00519 whole entry): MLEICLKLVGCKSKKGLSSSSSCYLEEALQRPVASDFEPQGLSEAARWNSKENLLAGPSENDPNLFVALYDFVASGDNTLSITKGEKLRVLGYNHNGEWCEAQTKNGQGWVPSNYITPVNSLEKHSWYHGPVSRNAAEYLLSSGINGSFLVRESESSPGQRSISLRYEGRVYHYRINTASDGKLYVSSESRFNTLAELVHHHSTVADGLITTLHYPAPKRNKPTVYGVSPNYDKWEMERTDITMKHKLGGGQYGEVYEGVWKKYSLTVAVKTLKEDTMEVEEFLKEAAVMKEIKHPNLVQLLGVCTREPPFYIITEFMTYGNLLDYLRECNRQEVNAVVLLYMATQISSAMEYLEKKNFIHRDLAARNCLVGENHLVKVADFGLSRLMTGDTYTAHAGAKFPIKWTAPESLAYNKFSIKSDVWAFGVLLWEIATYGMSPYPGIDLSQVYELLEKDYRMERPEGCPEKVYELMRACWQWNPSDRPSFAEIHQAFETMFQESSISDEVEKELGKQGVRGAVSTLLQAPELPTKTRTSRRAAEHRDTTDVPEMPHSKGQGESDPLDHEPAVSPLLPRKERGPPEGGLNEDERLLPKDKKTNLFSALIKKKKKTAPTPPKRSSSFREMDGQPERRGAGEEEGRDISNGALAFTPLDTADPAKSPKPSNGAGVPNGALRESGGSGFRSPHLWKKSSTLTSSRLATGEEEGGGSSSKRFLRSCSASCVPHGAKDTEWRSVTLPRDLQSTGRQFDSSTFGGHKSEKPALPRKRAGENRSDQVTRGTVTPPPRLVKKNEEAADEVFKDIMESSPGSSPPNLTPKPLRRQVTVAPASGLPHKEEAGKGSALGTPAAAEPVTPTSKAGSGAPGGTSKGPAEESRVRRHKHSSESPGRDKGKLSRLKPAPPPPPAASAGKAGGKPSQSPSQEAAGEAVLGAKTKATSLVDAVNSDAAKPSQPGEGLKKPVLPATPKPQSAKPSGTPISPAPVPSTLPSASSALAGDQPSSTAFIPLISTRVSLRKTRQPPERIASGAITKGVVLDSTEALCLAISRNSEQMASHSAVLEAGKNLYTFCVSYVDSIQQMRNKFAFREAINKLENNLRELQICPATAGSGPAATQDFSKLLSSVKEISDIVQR
T4 sequence (P12931 whole entry): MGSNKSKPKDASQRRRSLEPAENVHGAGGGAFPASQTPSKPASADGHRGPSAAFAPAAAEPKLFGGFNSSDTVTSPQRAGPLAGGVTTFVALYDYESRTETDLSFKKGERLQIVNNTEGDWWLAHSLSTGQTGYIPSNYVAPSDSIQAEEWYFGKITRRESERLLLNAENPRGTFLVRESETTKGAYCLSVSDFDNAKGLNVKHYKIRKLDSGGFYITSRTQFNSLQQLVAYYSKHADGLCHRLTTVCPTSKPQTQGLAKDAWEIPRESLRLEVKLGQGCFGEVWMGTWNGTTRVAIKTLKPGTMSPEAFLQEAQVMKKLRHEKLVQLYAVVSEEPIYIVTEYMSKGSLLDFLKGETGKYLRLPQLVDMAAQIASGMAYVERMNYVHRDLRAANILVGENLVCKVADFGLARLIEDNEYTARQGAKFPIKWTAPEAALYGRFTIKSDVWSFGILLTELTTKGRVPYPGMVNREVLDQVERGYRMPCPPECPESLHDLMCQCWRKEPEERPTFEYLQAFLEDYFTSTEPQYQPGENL
T6 sequence (Q9H0K1 whole entry): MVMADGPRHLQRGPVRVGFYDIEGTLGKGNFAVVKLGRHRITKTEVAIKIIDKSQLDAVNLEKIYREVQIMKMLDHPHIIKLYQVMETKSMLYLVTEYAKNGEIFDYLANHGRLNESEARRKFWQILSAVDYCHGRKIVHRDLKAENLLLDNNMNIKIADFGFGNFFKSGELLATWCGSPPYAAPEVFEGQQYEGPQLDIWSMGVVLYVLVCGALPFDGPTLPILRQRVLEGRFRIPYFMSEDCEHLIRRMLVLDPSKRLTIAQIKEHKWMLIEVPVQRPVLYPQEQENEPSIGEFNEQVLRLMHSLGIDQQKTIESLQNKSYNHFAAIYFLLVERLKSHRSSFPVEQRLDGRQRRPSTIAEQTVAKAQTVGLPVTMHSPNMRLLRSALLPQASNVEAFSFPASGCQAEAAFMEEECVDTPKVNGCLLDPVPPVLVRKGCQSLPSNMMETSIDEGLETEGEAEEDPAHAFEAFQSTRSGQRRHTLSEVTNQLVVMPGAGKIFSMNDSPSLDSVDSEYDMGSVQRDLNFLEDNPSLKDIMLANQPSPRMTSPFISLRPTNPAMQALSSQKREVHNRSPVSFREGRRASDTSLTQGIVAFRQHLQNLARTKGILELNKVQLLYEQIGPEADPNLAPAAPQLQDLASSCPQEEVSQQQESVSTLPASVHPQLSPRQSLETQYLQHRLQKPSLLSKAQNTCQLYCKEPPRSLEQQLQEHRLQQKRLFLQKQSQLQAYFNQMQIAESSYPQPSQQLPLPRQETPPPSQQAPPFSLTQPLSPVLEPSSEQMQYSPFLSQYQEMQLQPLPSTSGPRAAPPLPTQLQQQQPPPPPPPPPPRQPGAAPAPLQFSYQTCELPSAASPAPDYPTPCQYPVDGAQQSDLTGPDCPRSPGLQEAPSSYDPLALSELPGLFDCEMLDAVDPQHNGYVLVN
T1 sequence (P29317 24-976): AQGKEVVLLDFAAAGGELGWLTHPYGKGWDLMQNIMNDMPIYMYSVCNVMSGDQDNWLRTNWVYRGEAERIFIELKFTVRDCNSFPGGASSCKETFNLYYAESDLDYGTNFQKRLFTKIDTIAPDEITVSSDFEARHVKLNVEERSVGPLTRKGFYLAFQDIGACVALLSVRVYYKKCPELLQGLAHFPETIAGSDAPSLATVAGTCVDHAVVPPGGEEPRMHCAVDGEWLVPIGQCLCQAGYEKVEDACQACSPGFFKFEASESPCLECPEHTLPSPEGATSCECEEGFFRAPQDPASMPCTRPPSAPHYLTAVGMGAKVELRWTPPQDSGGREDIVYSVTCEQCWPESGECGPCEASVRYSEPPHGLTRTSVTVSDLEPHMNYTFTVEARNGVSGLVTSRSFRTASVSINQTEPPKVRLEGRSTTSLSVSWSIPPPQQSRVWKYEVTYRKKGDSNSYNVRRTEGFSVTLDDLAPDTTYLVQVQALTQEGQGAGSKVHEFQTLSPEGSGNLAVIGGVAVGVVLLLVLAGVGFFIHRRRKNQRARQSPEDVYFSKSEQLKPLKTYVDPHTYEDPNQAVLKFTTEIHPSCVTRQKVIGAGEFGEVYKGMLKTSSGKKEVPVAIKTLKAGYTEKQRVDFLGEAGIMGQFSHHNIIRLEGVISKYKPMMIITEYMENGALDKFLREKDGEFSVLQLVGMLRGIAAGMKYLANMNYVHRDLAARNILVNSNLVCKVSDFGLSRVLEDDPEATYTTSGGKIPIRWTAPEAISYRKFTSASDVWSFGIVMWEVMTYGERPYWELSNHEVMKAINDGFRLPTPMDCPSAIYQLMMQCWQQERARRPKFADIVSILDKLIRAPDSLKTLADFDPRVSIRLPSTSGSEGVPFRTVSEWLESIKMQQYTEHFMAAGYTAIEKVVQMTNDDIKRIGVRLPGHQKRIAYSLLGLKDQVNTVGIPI

Compound | Ki (EPHA2) [nM] | Ki (SIK1) [nM] | Ki (Abl) [nM] | Ki (Src) [nM] | Ki (SIK3) [nM] | Ki (SIK2) [nM]
Cc1cccc(F)c1-c1cc(N2CCC[C@@H](O)C2)c2cc(N)ncc2c1 [Example 108, (3R)-1-[3-amino-7-(2-fluoro-6-methyl-phenyl)-5-isoquinolyl]piperidin-3-ol] | 2290 | 29.7 | 101 | 1880 | 130 | 2.39
Cc1cccc(F)c1-c1cc(N[C@H]2CC[C@H](O)CC2)c2cc(N)ncc2c1 [Example 109, 4-[[3-amino-7-(2-fluoro-6-methyl-phenyl)-5-isoquinolyl]amino]cyclo hexanol] | > 1000 | 3.76 | 74.8 | 3330 | 14.9 | 1.6
Cc1cccc(F)c1-c1cc(NC2CCOCC2)c2cc(N)ncc2c1 [Example 110, 7-(2-Fluoro-6-methyl-phenyl)-N5-tetrahydropyran-4-yl-isoquinoline-3,5-diamine] | > 1000 | 55.5 | 56 | > 10000 | 78.1 | 6.97
CC(=O)N[C@H]1CCN(c2cc(-c3c(C)cccc3F)cc3cnc(N)cc23)C1 [Example 112, N-[(3S)-1-[3-Amino-7-(2-fluoro-6-methyl-phenyl)-5-isoquinolyl]pyrrolidin-3-yl]acetamide] | > 10000 | 91.6 | 124 | > 10000 | 431 | 14.7
CC(=O)N[C@@H]1CCN(c2cc(-c3c(C)cccc3F)cc3cnc(N)cc23)C1 [Example 113, N-[(3R)-1-[3-amino-7-(2-fluoro-6-methyl-phenyl)-5-isoquinolyl]pyrrolidin-3-yl]acetamide] | > 10000 | 74.9 | 88.9 | 1080 | 234 | 9.81
CC(=O)NC1CCN(c2cc(-c3c(C)cccc3F)cc3cnc(N)cc23)CC1 [Example 114, N-[1-[3-amino-7-(2-fluoro-6-methyl-phenyl)-5-isoquinolyl]-4-piperidyl]acetamide] | > 1000 | 12 | 16.4 | 1600 | 20.3 | 0.617
Cc1cccc(F)c1-c1cc(C2CCN(C)CC2)c2cc(N)ncc2c1 [Example 117, 7-(2-Fluoro-6-methyl-phenyl)-5-(1-methyl-4-piperidyl)isoquinolin-3-amine] | > 1000 | 0.678 | 12.3 | > 1000 | 0.473 | 0.0546
CCN1CCC(Nc2cc(-c3c(C)cccc3F)c(F)c3cnc(N)cc23)CC1 [Example 118, N5-(1-Ethyl-4-piperidyl)-8-fluoro-7-(2-fluoro-6-methyl-phenyl)isoquinoline-3,5-diamine] | > 10000 | 10.2 | > 10000 | > 10000 | 77 | 6.2
Cc1cccc(F)c1-c1cc(NC2CCN(C)CC2)c2cc(N)ncc2c1F [Example 119, 8-fluoro-7-(2-fluoro-6-methyl-phenyl)-N5-(1-methyl-4-piperidyl)isoquinoline-3,5-diamine] | > 1000 | 4.3 | > 1000 | > 1000 | 25 | 3.11
Cc1cccc(F)c1-c1cc(NC2CCNCC2)c2cc(N)ncc2c1F [Example 120, 8-Fluoro-7-(2-fluoro-6-methyl-phenyl)-N5-(4-piperidyl)isoquinoline-3,5-diamine] | > 1000 | 3.55 | > 1000 | > 1000 | 22.1 | 2.43
Cc1cccc(F)c1-c1cc(NC2CCN(C)CC2)c2cc(N)ncc2n1 [Example 121, 2-(2-Fluoro-6-methyl-phenyl)-N4-(1-methyl-4-piperidyl)-1,7-naphthyridine-4,6-diamine] | 2650 | 178 | > 10000 | > 10000 | 488 | 46
Cc1cccc(F)c1-c1cc(NC2CCN(C)CC2)c2ccncc2n1 [Example 122, 2-(2-Fluoro-6-methyl-phenyl)-N-(1-methyl-4-piperidyl)-1,7-naphthyridin-4-amine] | > 10000 | 266 | > 10000 | > 10000 | 531 | 121

Now those with a lower Ki (EPHA2), led by results:

Ki (EPHA2) [nM] | Ki (SIK1) [nM] | Ki (Abl) [nM] | Ki (Src) [nM] | Ki (SIK3) [nM] | Ki (SIK2) [nM] | Compound
1.08 | 0.183 | 0.243 | 0.974 | 0.301 | 0.0274 | CC(=O)Nc1cc2c(NC3CCN(C)CC3)cc(-c3c(C)cccc3F)cc2cn1 [Example 115, N-[7-(2-Fluoro-6-methyl-phenyl)-5-[(1-methyl-4-piperidyl)amino]-3-isoquinolyl]acetamide]
47.4 | 8.53 | 16.7 | 80.2 | 13.8 | 4.93 | Cc1cccc(F)c1-c1cc(C(=O)NC2CCN(C)CC2)c2cc(N)ncc2c1 [Example 116, 3-Amino-7-(2-fluoro-6-methyl-phenyl)-N-(1-methyl-4-piperidyl)isoquinoline-5-carboxamide]
216 | 2.72 | > 1000 | > 1000 | 6.92 | 1.86 | Cc1cccc(F)c1-c1cc(NC2CCNCC2)c2ncncc2c1 [Example 123, 6-(2-Fluoro-6-methyl-phenyl)-N-(4-piperidyl)quinazolin-8-amine]
48.6 | 0.338 | 6.13 | 17.1 | 0.354 | 0.0472 | Cc1cccc(F)c1-c1cc(NC2CCNCC2)c2nc(N)ncc2c1 [Example 124, 6-(2-fluoro-6-methyl-phenyl)-N8-(4-piperidyl)quinazoline-2,8-diamine]
244 | 2.99 | > 1000 | > 1000 | 5 | 1.37 | Cc1cccc(F)c1-c1cc(NC2CCN(C)CC2)c2ncncc2c1 [Example 125, 6-(2-Fluoro-6-methyl-phenyl)-N-(1-methyl-4-piperidyl)quinazolin-8-amine]
302 | 2.95 | 92.7 | 539 | 6.35 | 3.01 | CCN1CCC(Nc2cc(-c3c(C)cccc3F)cc3cncnc23)CC1 [Example 126, N-(1-Ethyl-4-piperidyl)-6-(2-fluoro-6-methyl-phenyl)quinazolin-8-amine]
149 | 0.647 | 7.16 | 30.8 | 1.22 | 0.168 | CCN1CCC(Nc2cc(-c3c(C)cccc3F)cc3cnc(N)nc23)CC1 [Example 127, N8-(1-Ethyl-4-piperidyl)-6-(2-fluoro-6-methyl-phenyl)quinazoline-2,8-diamine]
20 | 0.409 | 26.4 | 27.4 | 1.46 | 0.184 | CCN1CCC(Nc2cc(-c3c(C)cccc3Cl)cc3cnc(N)nc23)CC1 [Example 128, 6-(2-chloro-6-methyl-phenyl)-N8-(1-ethyl-4-piperidyl)quinazoline-2,8-diamine]
18.1 | 0.176 | 17.4 | 19.3 | 0.339 | 0.0784 | Cc1cccc(Cl)c1-c1cc(NC2CCN(C)CC2)c2nc(N)ncc2c1 [Example 129, 6-(2-chloro-6-methyl-phenyl)-N8-(1-methyl-4-piperidyl)quinazoline-2,8-diamine]
85.3 | 5.53 | > 10000 | 549 | 17.2 | 2.87 | Cc1cccc(Cl)c1-c1cc(NC2CCN(C)CC2)c2ncncc2c1 [Example 130, 6-(2-chloro-6-methyl-phenyl)-N-(1-methyl-4-piperidyl)quinazolin-8-amine]
75.6 | 5.39 | 237 | 285 | 20.9 | 5.59 | CCN1CCC(Nc2cc(-c3c(C)cccc3Cl)cc3cncnc23)CC1 [Example 131, 6-(2-chloro-6-methyl-phenyl)-N-(1-ethyl-4-piperidyl)quinazolin-8-amine]
58.8 | 0.317 | 8.63 | 46.3 | 0.45 | 0.0399 | Cc1cccc(F)c1-c1cc(NC2CCN(C)CC2)c2nc(N)ncc2c1 [Example 132, 6-(2-fluoro-6-methyl-phenyl)-N8-(1-methyl-4-piperidyl)quinazoline-2,8-diamine]
34.8 | 0.348 | 1.13 | 6.32 | 0.271 | 0.0609 | Cc1cccc(F)c1-c1cc(NC2CCNCC2)c2c(C#N)c(N)ncc2c1 [Example 133, 3-Amino-7-(2-fluoro-6-methyl-phenyl)-5-(4-piperidylamino)isoquinoline-4-carbonitrile]
25.1 | 0.558 | 1.94 | 12.3 | 0.452 | 0.132 | Cc1cccc(F)c1-c1cc2cnc(N)cc2c(NC2CCNCC2)c1F [Example 134, 6-Fluoro-7-(2-fluoro-6-methyl-phenyl)-N5-(4-piperidyl)isoquinoline-3,5-diamine]
